Laboratory results reported in patent US12077503B2, “Substituted cyclic amides and their use as herbicides” (FMC CORPORATION, priority 2015, dated 2024).

What was measured:
Type in all cases: in vivo
[1] = tested on: barnyardgrass (Echinochloa crus-galli); assay: Test G Pre-Emergence Protocol; conditions: Echinochloa crus-galli, pre-emergence, 312 h, evaluated after 13 days
Description: (§1) Seeds of corn (Zea mays), giant foxtail (Setaria faberi), barnyardgrass (Echinochloa crus-galli), ivy-leaved morning glory (Ipomoea hederacea), redroot pigweed (Amaranthus retroflexus) and velvetleaf (Abutilon theophrasti) were sown in standard soil in pots. After cultivation for one day under controlled conditions in a glasshouse (at 24/16° C., day/night; 14 hours light; 65% humidity), the plants were sprayed with an aqueous spray solution derived from the formulation of the technical active ingredient in acetone/water (50:50) solution containing 0.5% Tween 20 (polyoxyethylene sorbitan monolaurate, CAS RN 9005-64-5) to give a final dose of 15.625, 62.5 or 250 g/ha of test compound.
(§2) The test plants were then grown on under controlled conditions in a glasshouse (at 24/16° C., day/night; 14 hours light; 65% humidity) and watered twice daily. After 13 days the test was evaluated (100=total damage to plant; 0=no damage to plant). A dash (-) means no test result.

[2] = tested on: redroot pigweed (Amaranthus retroflexus); assay: Test G Pre-Emergence Protocol; conditions: evaluated after 13 days
Description: as §1, §2

[3] = tested on: giant foxtail (Setaria faberi); assay: Test G Pre-Emergence Protocol; conditions: Setaria faberi, pre-emergence, 312 h, evaluated after 13 days
Description: as §1, §2

[4] = tested on: ivy-leaved morning glory (Ipomoea hederacea); assay: Test G Pre-Emergence Protocol; conditions: evaluated after 13 days
Description: as §1, §2

corn (Zea mays) [5] = assay: Test G Pre-Emergence Protocol; conditions: evaluated after 13 days
Description: as §1, §2

[6] = tested on: velvetleaf (Abutilon theophrasti); assay: Test G Pre-Emergence Protocol; conditions: evaluated after 13 days
Description: as §1, §2

[7] = tested on: barnyardgrass (Echinochloa crus-galli); assay: Test G Post-Emergence Protocol
Description: as §1, with “8 days” for “one day”
as §2

[8] = tested on: redroot pigweed (Amaranthus retroflexus); assay: Test G Post-Emergence Protocol
Description: as §1, with “8 days” for “one day”
as §2

[9] = tested on: giant foxtail (Setaria faberi); assay: Test G Post-Emergence Protocol
Description: as §1, with “8 days” for “one day”
as §2

[10] = tested on: ivy-leaved morning glory (Ipomoea hederacea); assay: Test G Post-Emergence Protocol
Description: as §1, with “8 days” for “one day”
as §2

corn (Zea mays) [11] = assay: Test G Post-Emergence Protocol
Description: as §1, with “8 days” for “one day”
as §2

[12] = tested on: velvetleaf (Abutilon theophrasti); assay: Test G Post-Emergence Protocol
Description: as §1, with “8 days” for “one day”
as §2

[13] = 62.5 g ai/ha, 100=total damage to plant, 0=no damage to plant
[14] = 15.625 g ai/ha, evaluated after 13 days (100=total damage to plant; 0=no damage to plant)
[15] = 62.5 g ai/ha, evaluated after 13 days
[16] = 250 g ai/ha, evaluated after 13 days

Work on `CN1C[C@H](c2ccc(C(F)(F)F)cc2)[C@@H](C(=O)Nc2cccc(F)n2)C1=O` (racemic) [Compound 1428] yielded a pest or weed control at 15.625 g/ha ([1]; 15.625 g ai/ha, read-out: Barnyard grass damage rating (100=total damage to plant; 0=no damage to plant)) of 50%, a pest or weed control at 62.5 g/ha ([1]; 62.5 g ai/ha, 100=total damage to plant, 0=no damage to plant, read-out: plant damage rating, Barnyardgrass) of 60% and a pest or weed control at 250 g/ha ([1]; 250 g ai/ha, read-out: Barnyardgrass damage rating (100=total damage to plant; 0=no damage to plant)) of 80%. The “Pigweed, Redroot damage rating (100=total damage to plant; 0=no damage to plant)” value ([2]; 15.625 g ai/ha) was 0, the “plant damage rating, Pigweed, Redroot” value [2, 13] was 0 and the pest or weed control at 250 g/ha ([2]; Amaranthus retroflexus, pre-emergence, 312 h, 250 g ai/ha, read-out: Pigweed, Redroot damage rating (100=total damage to plant; 0=no damage to plant)) was 80%. It also gave a pest or weed control at 15.625 g/ha ([3]; 15.625 g ai/ha, read-out: Foxtail, Giant damage rating (100=total damage to plant; 0=no damage to plant)) of 70%, a pest or weed control at 62.5 g/ha ([3]; 62.5 g ai/ha, 100=total damage to plant, 0=no damage to plant, read-out: plant damage rating, Foxtail, Giant) of 80% and a pest or weed control at 250 g/ha ([3]; 250 g ai/ha, read-out: Foxtail, Giant damage rating (100=total damage to plant; 0=no damage to plant)) of 80%. The “Morning-glory, Ivy-leaved damage rating (100=total damage to plant; 0=no damage to plant)” value ([4]; 15.625 g ai/ha) was 10, the “plant damage rating, Morningglory, Ivy-leaved” value [4, 13] was 10 and the pest or weed control at 250 g/ha ([4]; Ipomoea, pre-emergence, 312 h, 250 g ai/ha, read-out: Morningglory, Ivy-leaved damage rating (100=total damage to plant; 0=no damage to plant)) was 40%. The “Corn damage rating (100=total damage to plant; 0=no damage to plant)” value (corn (Zea mays) [5]; 15.625 g ai/ha) was 50, the plant injury at 62.5 g/ha (corn (Zea mays) [5]; Zea mays, pre-emergence, 312 h, 62.5 g ai/ha, 100=total damage to plant, 0=no damage to plant, read-out: plant damage rating, Corn) was 20% and the plant injury at 250 g/ha (corn (Zea mays) [5]; Zea mays, pre-emergence, 312 h, 250 g ai/ha, read-out: Corn damage rating (100=total damage to plant; 0=no damage to plant)) was 70%. The “Velvetleaf damage rating (100=total damage to plant; 0=no damage to plant)” value ([6]; 15.625 g ai/ha) was 0, the “plant damage rating, Velvetleaf” value [6, 13] was 0 and the “Velvetleaf damage rating (100=total damage to plant; 0=no damage to plant)” value ([6]; 250 g ai/ha) was 0. The Barnyardgrass damage rating [7, 14] was 20, the “Barnyardgrass damage rating (100=total damage to plant; 0=no damage to plant)” value [7, 15] was 20 and the “damage to plant, Barnyardgrass (100=total damage to plant; 0=no damage to plant)” value [7, 16] was 40. For the same compound, the “Pigweed, Redroot damage rating (100=total damage to plant; 0=no damage to plant)” value [8, 15] was 10, the pest or weed control at 15.625 g/ha ([8]; Amaranthus retroflexus, post-emergence, 312 h, 15.625 g ai/ha, evaluated after 13 days (100=total damage to plant; 0=no damage to plant), read-out: Pigweed, Redroot damage rating) was 10% and the pest or weed control at 250 g/ha ([8]; Amaranthus retroflexus, post-emergence, 312 h, 250 g ai/ha, evaluated after 13 days, read-out: damage to plant, Pigweed, Redroot (100=total damage to plant; 0=no damage to plant)) was 40%. For the same compound, the “Foxtail, Giant damage rating” value [9, 14] was 30, the pest or weed control at 62.5 g/ha ([9]; Setaria faberi, post-emergence, 312 h, 62.5 g ai/ha, evaluated after 13 days, read-out: Foxtail, Giant damage rating (100=total damage to plant; 0=no damage to plant)) was 50% and the pest or weed control at 250 g/ha ([9]; Setaria faberi, post-emergence, 312 h, 250 g ai/ha, evaluated after 13 days, read-out: damage to plant, Foxtail, Giant (100=total damage to plant; 0=no damage to plant)) was 60%. For the same compound, the “Morningglory, Ivy-leaved damage rating” value [10, 14] was 10, the “Morningglory, Ivy-leaved damage rating (100=total damage to plant; 0=no damage to plant)” value [10, 15] was 10 and the “damage to plant, Morningglory, Ivy-leaved (100=total damage to plant; 0=no damage to plant)” value [10, 16] was 20. For the same compound, the “damage to plant, Corn (100=total damage to plant; 0=no damage to plant)” value (corn (Zea mays) [11]; [16]) was 20, the plant injury at 15.625 g/ha (corn (Zea mays) [11]; Zea mays, post-emergence, 312 h, 15.625 g ai/ha, evaluated after 13 days (100=total damage to plant; 0=no damage to plant), read-out: Corn damage rating) was 10% and the plant injury at 62.5 g/ha (corn (Zea mays) [11]; Zea mays, post-emergence, 312 h, 62.5 g ai/ha, evaluated after 13 days, read-out: Corn damage rating (100=total damage to plant; 0=no damage to plant)) was 10%. The Velvetleaf damage rating [12, 14] was 0, the “Velvetleaf damage rating (100=total damage to plant; 0=no damage to plant)” value [12, 15] was 0 and the “damage to plant, Velvetleaf (100=total damage to plant; 0=no damage to plant)” value [12, 16] was 0.
